Consider ten compounds from PubChem BioAssay AID624004 (Vanderbilt Specialized Chemistry Center, 2012).

As usually defined, the IC50 is the point on the concentration scale where inhibition reaches its midpoint.

Phospholipase D2 (Homo sapiens) + Phospholipase D2 (Homo sapiens), sequence (O14939 whole entry, looked up): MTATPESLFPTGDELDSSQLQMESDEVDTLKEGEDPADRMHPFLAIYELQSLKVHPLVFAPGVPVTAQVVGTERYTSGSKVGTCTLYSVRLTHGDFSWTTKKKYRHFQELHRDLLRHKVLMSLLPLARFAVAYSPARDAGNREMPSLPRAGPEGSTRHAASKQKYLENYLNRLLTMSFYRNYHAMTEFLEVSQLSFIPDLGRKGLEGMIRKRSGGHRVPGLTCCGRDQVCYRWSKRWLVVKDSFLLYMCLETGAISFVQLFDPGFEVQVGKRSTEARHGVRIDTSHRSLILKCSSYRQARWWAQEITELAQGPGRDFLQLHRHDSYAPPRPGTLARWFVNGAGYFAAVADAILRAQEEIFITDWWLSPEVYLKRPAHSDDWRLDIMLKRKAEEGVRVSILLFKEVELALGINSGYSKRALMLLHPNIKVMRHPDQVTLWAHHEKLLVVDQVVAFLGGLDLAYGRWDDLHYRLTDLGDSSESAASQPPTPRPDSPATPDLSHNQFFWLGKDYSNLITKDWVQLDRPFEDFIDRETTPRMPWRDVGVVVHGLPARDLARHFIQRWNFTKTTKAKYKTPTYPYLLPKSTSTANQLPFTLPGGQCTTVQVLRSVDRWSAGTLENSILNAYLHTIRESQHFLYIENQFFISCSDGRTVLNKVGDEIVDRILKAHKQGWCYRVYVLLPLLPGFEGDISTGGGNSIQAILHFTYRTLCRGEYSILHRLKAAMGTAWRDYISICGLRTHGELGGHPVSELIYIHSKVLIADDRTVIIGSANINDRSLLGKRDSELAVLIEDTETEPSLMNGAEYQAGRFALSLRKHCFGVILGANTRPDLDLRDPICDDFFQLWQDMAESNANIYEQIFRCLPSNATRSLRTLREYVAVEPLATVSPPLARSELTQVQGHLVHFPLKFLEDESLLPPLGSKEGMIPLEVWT
Phospholipase D2 (Homo sapiens) + Phospholipase D2 (Homo sapiens), sequence (O14939 whole entry, looked up): as above

The experiment addresses Phospholipase D2 (Homo sapiens) + Phospholipase D2 (Homo sapiens) (UniProt O14939+O14939). The experiment in a line: cellular phospholipase D2 inhibitors, IC50 – cell-based, Lib32, assay 2B, dose response (AID 624004). Particulars: cellular PLD2 activity assay.
Take `C[C@@H](CN1CCC2(CC1)C(=O)NCN2c1cccc(F)c1)NC(=O)c1cccc(F)c1`: the IC50 was 1200 nM. The value for `C[C@@H](CN1CCC2(CC1)C(=O)NCN2c1cccc(F)c1)NC(=O)c1ccc(F)cc1` was 34 nM.

Turning to `COc1cc(C(=O)NCCN2CCC3(CC2)C(=O)NCN3c2cccc(F)c2)cc(OC)c1OC`, the IC50 was 1430 nM. The value for `COc1cc(C(=O)N[C@@H](C)CN2CCC3(CC2)C(=O)NCN3c2cccc(F)c2)cc(OC)c1OC` was 72 nM; that for `C[C@@H](CN1CCC2(CC1)C(=O)NCN2c1cccc(F)c1)NC(=O)c1ccc(F)c(F)c1` was 120 nM. The figure for `C[C@@H](CN1CCC2(CC1)C(=O)NCN2c1cccc(F)c1)NC(=O)c1cccc([N+](=O)[O-])c1` is 430 nM. With `O=C(NCCN1CCC2(CC1)C(=O)NCN2c1cccc(F)c1)c1ccc(F)cc1`, the IC50 is 355 nM. The value for `C[C@@H](CN1CCC2(CC1)C(=O)NCN2c1cccc(F)c1)NC(=O)c1ccc(Br)cc1` was 84 nM; that for `O=C(NCCN1CCC2(CC1)C(=O)NCN2c1cccc(F)c1)c1ccc(Br)cc1` was 200 nM; that for `C[C@@H](CN1CCC2(CC1)C(=O)NCN2c1cccc(F)c1)NC(=O)c1ccc(F)cc1F` was 947 nM.
